Assay results reported in patent US7223836B2, “Peptides for chlamydophila pneumoniae vaccine and diagnosis” (The United States of America as represented by the …, priority 2001, dated 2007).
No end group written: not given here.

Tests used:
[1] = molecular target: 8A6 mAb; test: competitive inhibition ELISA: peptide blocks 8A6 mAb binding to sonicated C. pneumoniae; parameters: species or system murine
Method: To perform these experiments, an ELISA was utilized in which mAb and inhibitor (phage) were premixed, incubated for 2 hours, and then plated onto the microtiter plates with renographin purified, sonicated whole-cell C. pneumoniae.
Several methods were used to determine binding specificity. […] The best synthetic peptides were selected by competing the peptide against the respective native C. pneumoniae lysate for binding to the target mAb.

[2] = immunization of naive rabbits, antiserum ELISA; format: in vivo; settings: subcutaneous, 50–200 μg with aluminum hydroxide, boosters
Method: (§1) In order to identify immunologically reactive C. pneumoniae peptides that can be used in the development of a C. pneumoniae vaccine, naive mice and rabbits were immunized with various C. pneumoniae polypeptides. An exemplary protocol is as follows: 50–200 μg of CP-8A6-B1 (SEQ ID NO:4) was mixed with 1 mg of aluminum hydroxide, a less inflammatory alternative to Freund's adjuvant. Rabbits were injected subcutaneously at multiple sites with 0.05 ml of inoculum, whereas mice were immunized intraperitoneally with no more than 0.2 ml of inoculum. At least 2–3 weeks following the initial immunization, the mice and rabbits were given their first booster immunizations. Mice were given subsequent boosters at two week intervals for up to 6 total injections, whereas rabbits were typically injected every 4–6 weeks. […] Briefly, after the antigen was immobilized, the bound peptide was tested with serial dilutions of the mouse and rabbit antisera and was detected with a goat anti-mouse IgG or a goat anti-rabbit IgG heavy plus light chain antibody horseradish peroxidase conjugate (Pierce Scientific). […] Absorbance at 490 nm was recorded with an enzyme immunoassay reader (Bio-Tek Instruments, Burlington, Vt.). […] Wells with optical density readings greater than 0.2 units at 490 nm were indicative of an immunologically reactive antiserum.

[3] = immunization of naive mice, antiserum ELISA; format: in vivo; settings: intraperitoneal, 50–200 μg with aluminum hydroxide, boosters
Method: as §1

[4] = system: 8A6 mAb binding to fixed, cultured C. pneumoniae cells (RBs and EBs); test: competitive inhibition indirect IFA; parameters: species or system murine; settings: serially diluted peptide
Method: The indirect immunofluorescence assay (IFA) was performed as described previously (Storey et al., 1993 and Wong Skelton Chan, 1992) with modifications. Antibiotic-free Buffalo African Green monkey cells were seeded into 1 dram shell vials or 24-well tissue culture trays containing 12 mm cover slips at a density of 3.0×10^5 cells/mL. Cells were incubated for 24 hours at 37° C. and checked for confluency. Cell cultures were infected by the addition of C. pneumoniae followed by centrifugation at 3000× g. Inclusions were counted using the Pathfinder® Chlamydia Culture Confirmation System staining kit (Sanofi Diagnostics Pasteur, Redmond, Wash.) as per manufacturer specifications. The 8A6 mAb was used as previously described (Wong et al. 1992) for detection of C. pneumoniae inclusions and to determine species specificity.
A competitive inhibition IFA assay was performed using the previously described IFA assay with modification. […]
Due to the subjective nature of IFA tests, it is difficult to standardize a competitive inhibition to obtain fluorescence measures. Instead, slides were scored from 1 to 4 such that a value of 3+ equals the endpoint titer and changes due to inhibition were scored empirically from comparison with control slides. […]

[5] = competitive inhibition ELISA, binding of 8A6 mAb to sonicated C. pneumoniae fixed to solid phase

Sequence	IC50 (50% Inhibiting Concentration) [1, 5] [µg/mL]	percent inhibition [1, 5] [%]	immune response (antiserum reactivity by ELISA) [2]	percent inhibition ([1]; at 50 μg/mL of peptide) [%]	immune response (antiserum reactivity by ELISA) [3]	peptide concentration down to which any observable binding of 8A6 mAb was completely blocked [4] [ng/mL]
AFAQAPTHQLSL [CP-8A6-B3, AFAQAPTHQLSL]	6.46	67.8	–	–	–	–
ESNPVDGAHLSL [CP-8A6-B10A, ESNPVDGAHLSL]	18.90	57.4	–	–	–	–
HDEGRQIIQFEE [CP-8A6-A2, HDEGRQIIQFEE]	18.29	83.5	–	–	–	–
LRNCEQDFFTLN [CP-8A6-A3, LRNCEQDFFTLN]	18.54	95.1	–	–	–	–
PNEPDDLALMRIIRI [CP-8A6-B1, PNEPDDLALMRIIRI]	2.93	95.44	produced an immune response	95.44	produced an immune response	100
RRLGRQTYDNES [CP-8A6-A1, RRLGRQTYDNES]	4.82	84.5	–	–	–	–
